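48-hour exposure; five concentrations; linearly interpolated endpoints. At the GI50, growth is halved. TGI: concentration producing complete growth inhibition.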
Experiments:
Test in all cases: NCI tumour cell line growth inhibition, 48 h
BT-549 breast = tested on: BT-549 breast
DU-145 prostate = tested on: DU-145 prostate
HOP-92 NSCLC = tested on: HOP-92 NSCLC
HS 578T breast = tested on: HS 578T breast
MDA-MB-435 = tested on: MDA-MB-435
OVCAR-4 ovarian = tested on: OVCAR-4 ovarian
PC-3 prostate = tested on: PC-3 prostate
RXF 393 renal = tested on: RXF 393 renal
SNB-75 CNS = tested on: SNB-75 CNS
UACC-62 melanoma = tested on: UACC-62 melanoma

SMILES	GI50 (BT-549 breast) [µM]	TGI (BT-549 breast) [µM]	GI50 (DU-145 prostate) [µM]	TGI (DU-145 prostate) [µM]	GI50 (HOP-92 NSCLC) [µM]	TGI (HOP-92 NSCLC) [µM]	GI50 (HS 578T breast) [µM]	TGI (HS 578T breast) [µM]	GI50 (MDA-MB-435) [µM]	TGI (MDA-MB-435) [µM]	GI50 (OVCAR-4 ovarian) [µM]	TGI (OVCAR-4 ovarian) [µM]	GI50 (PC-3 prostate) [µM]	TGI (PC-3 prostate) [µM]	GI50 (RXF 393 renal) [µM]	TGI (RXF 393 renal) [µM]	GI50 (SNB-75 CNS) [µM]	TGI (SNB-75 CNS) [µM]	GI50 (UACC-62 melanoma) [µM]	TGI (UACC-62 melanoma) [µM]
O=C(O)CN(CCN(CC(=O)O)CC(=O)O)CCN(CC(=O)O)CC(=O)O	2.77	9.45	2.94	8.82	11.5	79	2.09	56.7	3.94	21.8	2.51	7.51	5.46	> 100	2.07	4.85	1.99	7.86	3.35	15.9
Cc1cc[c]([Sb]2[O]C(CO)C(C(O)C(O)C(=O)O)[O]2)cc1 (stereo not given)	> 100	> 100	38.5	> 100	> 100	> 100	87.7	> 100	81.7	> 100	> 100	> 100	57.7	> 100	28.2	84.7	23	76.8	> 100	> 100
CCOC(=O)c1sc2nc(=S)[nH]c(NC(N)=S)c2c1C	12.6	41	15.4	39.4	4.58	37.5	26	59.7	30.5	70.3	35.4	> 100	22.7	94.6	19.1	47.2	21.4	66.6	12.4	26.1
C=C(C)[C@@H]1CC[C@]2(C(=O)OC)CC[C@]3(C)[C@H](CC[C@@H]4[C@@](C)(CCc5nn[nH]n5)[C@H](C(=C)C)CC[C@]43C)[C@@H]12	33.2	> 100	16	32.4	8.08	22.3	19.8	53.8	17.6	44.2	14.7	48.1	3.46	17.2	15.7	30.1	15.9	34.1	5.35	19.6
O=C(O)C1CCCN1 (stereo not given)		> 100		> 100		> 100		> 100		> 100		> 100		> 100		> 100		> 100		> 100
CN1CCN(CCCOC(=O)c2c3c(n4ccccc24)C(=O)c2ncccc2C3=O)CC1	0.426	16.3	< 0.01	1.3	0.254	16.8	< 0.0268	1.15	0.0142	0.162	0.537	3.78	< 0.0232	16.7	< 0.0118	0.0303	< 0.0142	0.105	< 0.01	0.0324
CC(C)Cn1cnc2c(N)nc3ccccc3c21	43.8	> 100	47.2	> 100	31.1	> 100	60.8	> 100	48.9	> 100	67.2	> 100	34.7	> 100	28.9	97.2	41.4	> 100	38.4	> 100
Oc1ccc(CCNc2nc3ccccc3c3[nH]c4ccccc4c23)cc1O	9.27	21.3	2.45	7.44	1.31	2.95	8.28	> 100	1.7	3.26	4.8	16.9	1.51	3.63	1.91	3.59	15.9	33.2	3.86	13.4

Reference: PubChem BioAssay (NCI)
